The source of these data is patent publication US9060966B2, “Use of 2,5-dihydroxybenzene derivatives for the treatment of arthritis and pain” (priority 2006, dated 2015).

Assay [1] has as its system human retinal endothelial cells (HREC). Put plainly: Proliferation of human retinal endothelial cells (HREC, crystal violet). Type of assay: cell-based. Particulars: 72 h. The procedure:
(§1) 2A-5HBS was administered or not administered (control) after seeding the HREC in 24-well plates (7.5×10^3 per well) until they were fixed after 72 hours. The data are expressed as the mean±SEM of the percentage of the absorbance at 595 nm obtained in the control cultures, which is proportional to the number of cells stained with crystal violet. The data were obtained from 6 cultures for each treatment in two separate experiments. The white bar represents the value of the control cells, whereas the gray bars show the value in the presence of 2A-5HBS (500 and 1000 μM). * indicates p<0.05, *** p<0.001 with respect to the control by means of a single-factor analysis of variance (ANOVA) followed by a Student-Newman-Keuls post-analysis.
as §1, with “5A-2HBS” for “2A-5HBS”, “striped” for “gray”, “***” for “*”, “indicates” for “indicates p<0.05, ***”
2,5-DHCME was administered or not administered (control) after seeding the HREC in 24-well plates (7.5×10^3 per well) until they were fixed after 72 hours. The data are expressed as the mean±SEM of the percentage of the absorbance at 595 nm obtained in the control cultures, which is proportional to the number of cells stained with crystal violet. The data were obtained from 6 cultures for each treatment in two separate experiments.
Primary cultures of human retinal endothelial cells (HREC) were used. Cells were obtained from Cell Systems (Virginia, USA) and subcultured with CSC complete medium (Cell Systems). Cells at 2 to 5 passages were seeded in 24-well plates at 7,500 cells/well density and, once attached, the cells were treated o not treated (controls) with 2A-5HBS (500 and 1000 μM) or 5A-2HBS (500 and 1000 μM) and they were allowed to proliferate for 72 hours, with daily medium changes. After that, the proliferation of HREC was evaluated by staining the fixed cells with crystal violet. The number of cells is proportional to the amount of retained dye, which was spectrophotometrically determined by measuring absorbance at 595 nm after removing the dye from the cells. Data are expressed as the percentage of absorbance at 595 nm obtained in control conditions. Data were obtained from two different experiments performed in triplicate.
Primary cultures of human retinal endothelial cells (HREC) were used. Cells were obtained from Cell Systems (Virginia, USA) and subcultured with CSC complete medium (Cell Systems). […] After that, the proliferation of HREC was evaluated by staining the fixed cells with crystal violet. The number of cells is proportional to the amount of retained dye, which was spectrophotometrically determined by measuring absorbance at 595 nm after removing the dye from the cells. Data are expressed as the percentage of absorbance at 595 nm obtained in control conditions. […]

In assay [2] the test system is corneal neovascularization. Briefly: Topical treatment of human corneal neovascularization. Format: in vivo. Conditions: 5% solution of potassium salt, 4 drops a day topical, 19 days, one patient. From the text: Photographs showing the presence of corneal neovascularization in a patient before being treated (A) and after 19 days of topical application of a solution containing 5% of potassium 2,5-dihydroxybenzoate (B). The treatment consisted of daily topical application of 4 drops of such solution.
4 drops a day were topically applied in a patient that presented a corneal neovascularization process refractory to any type of previous treatment.

Another assay deals with rat C6 glioma cells. Briefly: Proliferation of rat glioma C6 cells (crystal violet). Type of assay: cell-based. Conditions: 500 μM, 48 h. The procedure:
FIG. 23. […] 5A-2HBS and 2A-5HBS were administered or not (control) after seeding C6 cells in 24 well plates (10^4 per well) until they were fixed 48 hours later. Data are expressed as the mean±SEM of the percentage of absorbance at 595 nm obtained in control cultures, which is proportional to the number of cells stained with crystal violet. Data were obtained from 3 cultures for each treatment and 6 control cultures.
The cell line used was the C6 cell line and the experiment was carried out as described in examples 2 and 3. Once adhered, the cells were treated or not (controls) with (5A-2HBS) (500 μM) or (2A-5HBS) (500 μM) and they were allowed to proliferate for 48 h. After this time the glioma cell proliferation was evaluated by means of staining the fixed cells with crystal violet. The number of cells is proportional to the amount of retained dye, which was determined spectrophotometrically by measuring the absorbance at 595 nm once the dye was extracted from the cells.

Assay [3] concerns the target T1, fibroblast growth factor-1 (FGF-1) (Homo sapiens, UniProt P05230). Briefly: Co-crystallisation with FGF-1 (crystal diffraction of complexes). Type of assay: binding. Particulars: for acetoxyl groups of the compound when bound to the protein: electron density contoured at 1σ; for binding site on FGF-1 in the crystal complex: reference: site of 2,5-dihydroxybenzene sulfonic acid, lysine 132. The source says:
FIG. 24. 2-acetoxy-5-hydroxybenzenesulfonic acid co-crystallized with fibroblast growth factor-1. […] The compound occupies a place that is very close to that described occupied by 2,5-dihydroxybenzenesulfonic acid, the aromatic ring of which forms a […] bond with the N^ε group of lysine 132, which is marked in panel A as reference. […] In panels A and B, the protein surface is colored according to its electrostatic potential (light grey: negative charge; dark grey: positive charge; white: lack of charge).
FIG. 25. 5-acetoxy-2-hydroxybenzenesulfonic acid co-crystallized with fibroblast growth factor-1. […] The compound occupies a place that is very close to that described occupied by 2,5-dihydroxybenzenesulfonic acid, the aromatic ring of which forms a cation-π bond with the N^ε group of lysine 132, which is marked in panel A as reference. […] In panels A and B, the protein surface is colored according to its electrostatic potential (light grey: negative charge; dark grey: positive charge; white: lack of charge).
FIG. 26. 2,5-diacetoxybenzenesulfonic acid co-crystallized with fibroblast growth factor-1. […] The compound occupies a place that is very close to that described occupied by 2,5-dihydroxybenzenesulfonic acid, the aromatic ring of which forms a cation-π bond with the N^ε group of lysine 132, which is marked in panel A as reference. […] In panels A and B, the protein surface is colored according to its electrostatic potential (light grey: negative charge; dark grey: positive charge; white: lack of charge).
Based on the crystal diffraction of the FGF-1:2-acetoxy-5-hydroxybenzene sulfonic acid, FGF-1:5-acetoxy-2-hydroxybenzene sulfonic acid and FGF-1:2,5-diacetoxybenzene sulfonic acid complexes, the structures of the complexes were calculated and represented. FIGS. 24, 25 and 26, which show the surface of the dyed protein according to its electrostatic potential (light grey: negative charge; dark grey: positive charge; white: lack of charge), show the manner in which 2-acetoxy-5-hydroxybenzene sulfonic acid, 5-acetoxy-2-hydroxybenzene sulfonic acid and 2,5-diacetoxybenzene sulfonic acid interact, respectively, with FGF-1.

In assay [4] the target is T1, fibroblast growth factor-1 (FGF-1). Put plainly: Inhibition of fibroblast mitogenesis induced by FGF-1 in Balb/c 3T3 fibroblasts. Type of assay: cell-based. Set-up: host or cells: added to Balb/c 3T3 fibroblasts (mouse). Conditions: quiescent Balb/c 3T3 cultures; potassium salts, except 2-acetoxy-5-hydroxybenzene sulfonate as calcium salt. The protocol:
The evaluated compounds were used in the form of potassium salt, except in the first case in which calcium salt was used. The experiments were carried out as described in Fernandez-Tornero C et al. J Biol Chem, 2003.

Another assay relates to Leishmania major. Put plainly: Experimental infection with Leishmania major in a mouse model (paw thickness). Particulars: 200 mg/kg/day i.p. for 14 days from third week after infection, effect from the eighth week. Format: in vivo, mice. From the text: The vehicle group consisted of infected animals that received daily injections of saline (0.9% NaCl) during the same period as DHBS. Results are expressed as the mean±the standard deviation of the increases in size of the inoculated paw (right) compared to the non-inoculated paw (left) in mm obtained with a Vernier caliper each week from 0 to 10. ** indicates p<0.01 vs. the vehicle-treated group by a Student t-test. 6 animals were used for each group.
The vehicle group consisted of infected animals that received daily injections of saline (0.9% NaCl) from the moment of the infection, while the control group consisted of non-infected animals. Results are expressed as the mean±the standard deviation of the increases in size of the inoculated paw (right) compared to the non-inoculated paw (left) in mm obtained with a Vernier caliper each week from 0 to 9. * indicates p<0.05 vs. the vehicle group by a Student t-test. 7 animals were used for each group.
The vehicle group consisted of infected animals that received daily injections of saline (0.9% NaCl) from the third week after the infection. Results are expressed as the mean±the standard deviation of the increases in size of the inoculated paw (right) compared to the non-inoculated paw (left) in mm obtained with a Vernier caliper each week from 0 to 9. * indicates p<0.05 vs. the vehicle group by a Student t-test. 7 animals were used for each group.
This model is based in the massive inoculation of Leishmania promatigotes in the mouse paw pad. Under these conditions, the parasite induces a progressive inflammation correlated with the multiplication of parasites at the site of inoculation. BALB/c strain female mice that developed severe and uncontrolled injuries were used (Foote S J, Handman E. Brief Funct Genomic Proteomic, 2005). This model has been used in pharmacology to monitor the therapeutic capacity of new leishmanicide compounds and the preventive capacity of potential vaccines against leishmaniasis ((Nelson K G et al. Antimicrob Agents Chemother. 2006).
The animals were inoculated with 5×10^6 of L. major promastigotes (strain Hervás) in 50 μL of PBS into the plantar pad of the right back paw. As negative control of the infection, a group of mice inoculated with 50 μL of PBS was used. The sizes of the lesions were measured every 7 days until the animals were sacrificed (week 9) using a Vernier caliper. The thickness of the right back paw (infected) and the left back paw (uninfected) of all the animals was measured at the base of the fifth toe. The progression of the inflammation is represented as the difference in thickness between the infected and the non-infected paws. […]

T1 sequence (P05230 whole entry, species assumed): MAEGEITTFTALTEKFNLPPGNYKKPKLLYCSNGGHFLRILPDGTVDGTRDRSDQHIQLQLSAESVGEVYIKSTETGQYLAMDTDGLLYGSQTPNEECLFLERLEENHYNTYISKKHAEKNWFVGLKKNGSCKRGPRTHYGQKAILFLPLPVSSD

Regarding `COC(=O)C=Cc1cc(O)ccc1O` [2,5-DHCME, 2,5-dihydroxycinnamic acid methyl ester], the HREC proliferation result in assay [1] (50 μM) and in assay [1] (100 μM) was “significant inhibition” in each case.

Turning to `O=C([O-])c1cc(O)ccc1O.[K+]` [2,5-dihydroxybenzoate, potassium 2,5-dihydroxybenzoate], the “degree of corneal vascularization” value in assay [2] is given as “remarkable reduction in the degree of corneal vascularization”; in assay [2] (listed as 2,5-dihydroxybenzoic acid) it was “noticeable reduction in the degree of corneal vascularization”.

With `CC(=O)Oc1ccc(O)cc1S(=O)(=O)[O-].[K+]` [2A-5HBS, potassium 2-acetoxy-5-hydroxybenzene sulfonate], the “rat glioma cell proliferation” value with rat C6 glioma cells was “inhibition”. Moreover, the HREC proliferation result in assay [1] (500 μM) is “significant inhibition”. Also, in assay [1] (1000 μM), the HREC proliferation result is on record as “significant inhibition”. Further, in assay [3], the “acetoxyl groups of the compound when bound to the protein” value was “conserve the acetoxyl groups” and the “binding site on FGF-1 in the crystal complex” value is listed as “a site that is very close to the one that has been described occupied by 2,5-dihydroxybenzene sulfonic acid”.

As to `CC(=O)Oc1ccc(O)c(S(=O)(=O)[O-])c1.[K+]` [5A-2HBS, potassium 5-acetoxy-2-hydroxybenzenesulfonate], in assay [4], the FGF-1 induced mitogenesis result was “Inhibition”. Also, the “rat glioma cell proliferation” value in the assay with rat C6 glioma cells is recorded as “inhibition”. For the same molecule, in assay [3], the “acetoxyl groups of the compound when bound to the protein” value is recorded as “conserve the acetoxyl groups” and the “binding site on FGF-1 in the crystal complex” value is “a site that is very close to the one that has been described occupied by 2,5-dihydroxybenzene sulfonic acid”.

Turning to `O=S(=O)([O-])c1cc(O)ccc1O.[K+]` [potassium 2,5-dihydroxybenzenesulfonate], in assay [4], the FGF-1 induced mitogenesis entry is recorded as “Inhibition”. Further, the “increase of paw thickness / size of the lesion (infected vs non-infected paw)” value is “Reduction in the size of the lesion” in the assay with Leishmania major and “significant reduction in the increase of paw thickness” in the assay with Leishmania major (listed as potassium 2,5-dihydroxybenzene sulfonate).

Regarding “calcium 2-acetoxy-5-hydroxybenzenesulfonate”, the FGF-1 induced mitogenesis entry in assay [4] was “Inhibition”.
